Assay results taken from patent US20160130224A1, “Novel Pyrrole Derivatives” (priority 2013, published 2016).

Assays:
[1] = molecular target: T1, pneumolysin (Streptococcus pneumoniae serotype 2, UniProt Q04IN8); test: Inhibition of pneumolysin-induced lactate dehydrogenase (LDH) release from A549 human lung epithelial cells; format: cell-based
Procedure: Pneumolysin induces the release of lactate dehydrogenase (LDH) from human monocytes and lung epithelial cells: a phenomenon that is indicative of plasma membrane damage or rupture [Infect. Immun. (2002) 70 1017-1022].
Human lung epithelial cells (A549) were seeded in flat-bottomed 96-well tissue culture plates and grown in RPMI 1640 medium supplemented with Glutamine, at 37° C., 5% CO2, for 24 h.
Before use, the cells were washed with PBS. Test compound dilutions were incubated with pneumolysin as described in Section A, then transferred to wells containing the human lung epithelial cells and the plates were incubated at 37° C., 5% CO2, for 30 min. The following controls were included on the plate (1) Negative controls, called low control (PBS only) to measure the natural release of LDH from the cells in culture, (2) positive controls (1% (v/v) Triton-X in PBS) to measure the maximum release of LDH from the cells (3) Pneumolysin solution only to measure pneumolysin-induced LDH release, (4) Test compound solution to assess the toxicity of the compound alone. […] Absorbance at 490 nm and 655 nm was then measured. The percentage of LDH release induced by pneumolysin in the presence and absence of test compounds was plotted against the Log of the concentration of the compound and the IC50 was determined, as described above in the inhibition of haemolysis assay, Section A.

[2] = Chemical stability assessment in PBS at 37.5° C. (HPLC); format: physicochemical; details: buffer, pH 6.2, read-out: Chemical stability at pH 6.2-7.2 (t1/2) (converted)
Procedure: (§1) Stability studies were carried out by dissolving 1-2 mg of compound in DMSO (1 mL) followed by addition of 0.4 mL of the resulting solution to stirred PBS solution (9.6 mL) at 37.5° C. A sample (ca. 0.5 mL) was immediately taken for HPLC analysis. Further samples were then taken for analysis at various timepoints thereafter. Half-lives were determined from the decrease in concentration of compound with respect to time.
as §1, with “performed” for “carried out”, “ml)” for “mL)”, “ml” for “mL”, “PBS” for “PBS solution”, “(˜0.5 ml)” for “(ca. 0.5 mL)”, “time-points” for “timepoints”

[3] = Solubility testing in PBS or 0.9% saline; format: physicochemical; details: result in words
Procedure: Solubility studies were performed by charging a vial with 5-10 mg of compound followed by the 40 addition of PBS solution or 0.9% saline to achieve a concentration of 100 mg/ml. If solubility was not observed the solution was diluted to concentrations of 50 mg/ml, 25 mg/ml and 4 mg/ml consecutively until complete solubility was observed.

[4] = molecular target: T1, pneumolysin; test: Inhibition of the haemolytic activity of pneumolysin (sheep erythrocytes); format: cell-based; details: pneumolysin at LD100, sheep erythrocytes, 37° C., read-out: IC50
Procedure: The basis of this assay is that when pneumolysin is added to red blood cells, it induces their lysis and leads to the release of haemoglobin. In the presence of an inhibitory compound, pneumolysin-induced lysis is abolished, the red blood cells pellet at the bottom of the microtitre plate well and the supernatant is clear. However, if the compound is not inhibitory, the red blood cells are lysed and haemoglobin is released into the supernatant.
Test compound solutions (typically at 5 mM in DMSO) were diluted 1:1 in 100% DMSO. The compounds were then two-fold serially diluted in 100% DMSO across 11 wells of 96-well round-bottomed microtitre plate. PBS was then added to all the wells to achieve a 1:10 dilution of the compound in PBS. Pneumolysin was then added at a concentration equal to its LD100. Plates were then incubated at 37° C. for 30-40 min. After the incubation period, an equal volume of 4% (v/v) sheep erythrocyte suspension was added to each well and the plates incubated again at 37° C., for at least 30 min. Controls with only erythrocytes in PBS (control for no lysis) or erythrocytes plus pneumolysin (control for lysis) were prepared following the same procedure. Following the incubation with the erythrocytes, the Absorbance at 595 nm of each well was measured and the data used to determine the IC50 for each test compound. The IC50 values were determined using non-linear regression curve fitting. For that, the Log of the concentrations of the test compound was plotted against the percentage inhibition, estimated from the A595 values, followed by fitting a Hill Slope to the data.

[5] = molecular target: T1, pneumolysin; test: Ex vivo meningitis assay: effect of pneumolysin on ciliary function of cultured ependymal cells; format: cell-based; details: rat ependymal cells; compound 1.56 μM; recorded over 30 min; FIG. 2
From the text: The ependymal ciliated cells line the cerebral ventricles of the brain and the central canal of the spinal cord and are covered with cilia responsible for the circulation of the cerebrospinal fluid (CSF) around the central nervous system. This layer acts as a selective brain barrier to and from the cerebrospinal fluid and plays a role in controlling the CSF volume. To study if the inhibitors prevent the damage caused by pneumolysin on the ependymal layer, a rat ex vivo model of meningitis was used. This model is based on culturing and differentiating ciliated ependymal cells from neonate rat brains, which recreate the in vivo situation, where cells lining the brain ventricles, are exposed to S. pneumoniae and its toxic products.
Ependymal cell cultures were prepared by the method previously described [Microb. Pathog. (1999) 27 303-309]. Tissue culture trays were coated with bovine fibronectin and incubated at 37° C. in 5% (v/v) CO2 for 2 h before use. […]
After approximately two weeks, the cells were fully ciliated and ready for experiments. […] Beating cilia were recorded before and after exposure over 30 min, with a digital high-speed video camera at a rate of 500 frames/s. The recorded video sequences were played back at reduced frame rates and the ciliary beat frequency (CBF) was determined by the following equation: […]

T1 sequence (Q04IN8 whole entry): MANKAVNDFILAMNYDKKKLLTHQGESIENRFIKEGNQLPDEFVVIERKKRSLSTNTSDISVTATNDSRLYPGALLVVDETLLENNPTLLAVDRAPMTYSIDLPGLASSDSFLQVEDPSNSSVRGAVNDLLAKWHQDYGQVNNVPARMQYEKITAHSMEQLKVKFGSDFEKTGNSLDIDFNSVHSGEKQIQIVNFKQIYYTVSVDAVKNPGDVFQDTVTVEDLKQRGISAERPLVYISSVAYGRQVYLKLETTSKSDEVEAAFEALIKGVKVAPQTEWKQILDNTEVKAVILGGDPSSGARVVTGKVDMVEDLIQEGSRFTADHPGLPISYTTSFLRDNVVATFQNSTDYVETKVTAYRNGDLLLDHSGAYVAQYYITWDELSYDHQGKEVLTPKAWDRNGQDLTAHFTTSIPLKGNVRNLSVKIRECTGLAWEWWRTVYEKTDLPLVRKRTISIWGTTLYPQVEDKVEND

For `COc1ccc(-n2c(C(=O)N(C)C)c(O)c(O)c2C(=O)N(C)C)cc1` [UL1-005, 3,4-Dihydroxy-1-(4-methoxyphenyl)-N^2,N^2,N^5,N^5-tetramethyl-1H-pyrrole-2,5-dicarboxamide], the IC50 [1] was less than 490 nM, the half-life [2] was less than 30 min and the “Solubility in 0.9% (w/v) saline, pH 6.5 or PBS pH 7.2” value [3] was “Not soluble”. For the same molecule, the IC50 ([4]; Table 1) was 200 nM, the IC50 ([4]; Table 2) was 200 nM and the “Ciliary beating frequency (CBF) in the presence of pneumolysin” value [5] was “No significant loss of the CBF”.
